The record followed here is patent publication US20110269680A1 (PANACEA BIOTEC LIMITED, priority 2008, published 2011).

Molecules are shown by their SMILES.

The test system of one series is C57/BL6 male mice. Briefly: OGTT and dose response effect of peptide of Seq ID No. 01. Type of series: in vivo. As for the experimental part: C57/BL6 male mice were fasted for 6 hrs. After 6 h of fasting, blood was drawn from a small tail clip for glucose level determination. […] Glucose was given orally at the ratio 1 mg/g body wt. per mouse 5 min after the administration of peptide. Blood glucose levels were determined at different time intervals i.e. at 0, 15, 30, 60, and 120 min during a period of 2 hours using a portable glucometer. The saline solution was used as control negative in the experiment.

In the next series the target is T1, NEP 24.11 (Homo sapiens, UniProt P08473).
T1 construct: purchased Calbiochem
Put plainly: NEP 24.11 resistant (degradation) assay. In kind it is in vitro ADME. Conditions: pH 7.4. The procedure: The aliquots were analyzed for the amount of undegraded peptide concentration at different time intervals using RP-HPLC by peak area integration. T1/2 of each peptide was determined from the graph plotted between peak area of undegraded peptide vs time.

Another series deals with db/db mice. Briefly: Anti-diabetic activity of peptide in db/db mice. Type of series: in vivo. Conditions: 25 nmol/kg daily i.p., versus saline. As for the experimental part:
Animals of two different age groups (6-8 and 10-12 weeks old db/db mice) were included in this study. 6-8 week old mice were chosen as pre-diabetic mice and 10-12 week old as the full-diabetic mice. The preventive effect of peptide of Seq. ID No. 01 on the progression of diabetes in pre-diabetic mice was examined. The effect of peptide of Seq. ID No. 01 in full-diabetic mice was also studied. […] Blood glucose levels were measured on day 0, 14, 28 and 42. Test peptide of Seq ID No. 01 was injected i.p. according to body weight and the feed was removed. Mice were not fed till 4 hrs following injection of the peptide on the day of blood sample testing. Normal chow was given after the 4 hr time point. […] Test compound/vehicle (saline solution i.e. control negative) to be administered at 0 hr.

For a further series, the target named is T2, DPP-IV (Homo sapiens, UniProt P27487).
T2 construct: purchased Sigma-Aldrich
Briefly: DPP-IV resistant assay. In kind it is in vitro ADME. As for the experimental part: 20 μM of peptides of the present invention (Sequence IDs—01, 02, 03, 04, 05, 06, 11, 12 and 13) were incubated with 60 mU/2 ml of DPP-IV (Sigma-Aldrich) enzyme at room temperature (22-24° C.) in 20 mM Tris HCl buffer, pH 8.0. The aliquots were analyzed for the amount of undegraded peptide concentration at different time intervals by RP-HPLC. The peak area integration was used to determine the amount of undegraded peptide (U.S. Pat. No. 7,067,488). T1/2 of each peptide was determined from the graph plotted between peak area of undegraded peptide vs. time. The peak area of DPP-IV untreated peptide in above mentioned buffer condition of same concentration was considered as time zero. […]

T2 sequence (P27487 whole entry, species assumed): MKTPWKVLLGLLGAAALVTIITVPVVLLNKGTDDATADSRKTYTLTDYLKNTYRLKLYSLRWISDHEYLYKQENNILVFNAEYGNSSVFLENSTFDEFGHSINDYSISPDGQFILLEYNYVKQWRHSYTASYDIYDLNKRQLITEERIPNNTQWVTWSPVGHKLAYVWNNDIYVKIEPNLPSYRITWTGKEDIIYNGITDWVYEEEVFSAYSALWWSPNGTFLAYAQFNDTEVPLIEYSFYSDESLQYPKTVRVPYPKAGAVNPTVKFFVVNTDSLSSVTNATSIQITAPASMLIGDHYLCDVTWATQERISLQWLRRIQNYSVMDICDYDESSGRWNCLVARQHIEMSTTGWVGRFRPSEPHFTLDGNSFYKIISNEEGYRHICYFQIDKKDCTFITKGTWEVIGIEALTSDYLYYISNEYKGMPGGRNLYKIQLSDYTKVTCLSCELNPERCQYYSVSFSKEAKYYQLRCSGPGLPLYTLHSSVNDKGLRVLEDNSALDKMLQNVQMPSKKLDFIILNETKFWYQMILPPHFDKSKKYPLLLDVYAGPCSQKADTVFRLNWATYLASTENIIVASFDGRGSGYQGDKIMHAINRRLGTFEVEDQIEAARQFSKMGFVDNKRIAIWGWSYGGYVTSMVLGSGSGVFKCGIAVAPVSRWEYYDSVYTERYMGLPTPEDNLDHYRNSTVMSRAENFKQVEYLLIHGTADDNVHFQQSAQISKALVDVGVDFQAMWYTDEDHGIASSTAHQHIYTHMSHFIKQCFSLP
T1 sequence (P08473 whole entry): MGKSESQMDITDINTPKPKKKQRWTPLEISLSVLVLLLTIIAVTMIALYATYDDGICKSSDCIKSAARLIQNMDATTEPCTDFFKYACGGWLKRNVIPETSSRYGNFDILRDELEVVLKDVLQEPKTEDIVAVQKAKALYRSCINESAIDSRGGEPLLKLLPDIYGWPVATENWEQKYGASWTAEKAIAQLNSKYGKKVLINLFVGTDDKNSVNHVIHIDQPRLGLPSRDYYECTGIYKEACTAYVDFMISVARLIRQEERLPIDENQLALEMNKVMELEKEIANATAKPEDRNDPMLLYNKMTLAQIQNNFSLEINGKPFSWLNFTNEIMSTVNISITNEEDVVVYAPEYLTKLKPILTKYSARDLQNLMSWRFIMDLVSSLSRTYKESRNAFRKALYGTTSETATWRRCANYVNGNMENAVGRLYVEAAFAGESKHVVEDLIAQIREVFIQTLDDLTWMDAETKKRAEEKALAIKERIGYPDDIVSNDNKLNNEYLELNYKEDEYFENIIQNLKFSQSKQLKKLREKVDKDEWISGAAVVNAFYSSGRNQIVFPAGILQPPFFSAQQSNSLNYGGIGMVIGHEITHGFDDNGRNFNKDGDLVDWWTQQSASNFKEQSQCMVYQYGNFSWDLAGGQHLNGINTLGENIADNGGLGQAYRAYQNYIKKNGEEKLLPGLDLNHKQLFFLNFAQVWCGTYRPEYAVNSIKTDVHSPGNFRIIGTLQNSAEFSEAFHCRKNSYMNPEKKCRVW

In the series on C57/BL6 male mice (OGTT dose response, intraperitoneally), `CC[C@H](C)[C@H](NC(=O)[C@H](Cc1ccccc1)NC(=O)[C@H](CCC(=O)O)NC(=O)[C@H](CCCCN)NC(=O)[C@H](C)NC(=O)[C@H](C)NC(=O)[C@H](CCC(N)=O)NC(=O)CNC(=O)[C@H](CCC(=O)O)NC(=O)[C@H](CC(C)C)NC(=O)[C@H](Cc1ccc(O)cc1)NC(=O)[C@H](CO)NC(=O)[C@H](CO)NC(=O)[C@@H](NC(=O)[C@H](CC(=O)O)NC(=O)[C@H](CO)NC(=O)[C@@H](NC(=O)[C@H](Cc1ccccc1)NC(=O)[C@@H](NC(=O)CNC(=O)[C@H](CCC(=O)O)NC(=O)c1ccc(CNC(=O)[C@@H](N)Cc2c[nH]cn2)o1)[C@@H](C)O)[C@@H](C)O)C(C)C)C(=O)N[C@@H](C)C(=O)N[C@@H](Cc1c[nH]c2ccccc12)C(=O)N[C@@H](CC(C)C)C(=O)N[C@H](C(=O)N[C@@H](CCCCN)C(=O)NCC(=O)N[C@@H](CCCNC(=N)N)C(=O)NCC(N)=O)C(C)C` [Seq ID No. 01] showed an optimum dose of 25 nmol/kg. Moreover, the “dose response, percent reduction in blood glucose (AUC0-60)” value in the series with C57/BL6 male mice (OGTT, 100, 25, 10, 5 and 1 nmol/kg intraperitoneally, FIG. 11) is “no significant difference between 100 nmol and 25 nmol doses”. Moreover, the half-life (as a rule, the time needed for the level to fall by half in the phase considered) at 20 μM is 29 h on NEP 24.11 (buffer) and greater than 72 h on DPP-IV (pH 8). The same compound yielded a metabolised at 54 h, 20 μM on NEP 24.11 (isolated enzyme neprilysin) of 92.6%. For the same compound, the “blood glucose level, progression of diabetes” value with db/db mice (6-8 weeks old db/db mice, 42 days) was “delayed the progression of diabetes as compared to control negative group”. In addition, in the series on db/db mice (10-12 weeks old db/db mice, 28 days), the “blood glucose level, activity versus control negative” value is reported as “better activity as compared to control negative group”. Also, the “Percentage degradation in hrs” value on DPP-IV came to 25%.
